Where two headings read alike, the source gives them in different places.
Experiments:
Drosophila OR10a = target: T1, Drosophila OR10a (Drosophila melanogaster, UniProt Q9VYZ1); experiment: Calcium ion fluorescence (GCaMP6) assay, OR10a stable HEK293 cell line; assay type: cell-based
T1 construct: expressed in transfected cells
T1 sequence (Q9VYZ1 1-406): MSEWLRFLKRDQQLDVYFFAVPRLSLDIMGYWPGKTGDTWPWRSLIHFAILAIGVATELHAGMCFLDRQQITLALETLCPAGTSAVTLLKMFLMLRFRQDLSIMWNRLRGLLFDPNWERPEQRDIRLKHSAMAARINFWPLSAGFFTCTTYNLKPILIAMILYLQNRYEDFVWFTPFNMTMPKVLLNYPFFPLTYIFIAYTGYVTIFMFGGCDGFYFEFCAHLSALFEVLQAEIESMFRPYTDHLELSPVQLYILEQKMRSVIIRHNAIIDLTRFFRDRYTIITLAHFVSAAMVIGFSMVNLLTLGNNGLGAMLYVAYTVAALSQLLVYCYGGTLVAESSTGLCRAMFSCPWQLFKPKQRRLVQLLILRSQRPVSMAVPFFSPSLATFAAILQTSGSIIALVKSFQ
T1 sequence (Q9VNB5 1-486 partner): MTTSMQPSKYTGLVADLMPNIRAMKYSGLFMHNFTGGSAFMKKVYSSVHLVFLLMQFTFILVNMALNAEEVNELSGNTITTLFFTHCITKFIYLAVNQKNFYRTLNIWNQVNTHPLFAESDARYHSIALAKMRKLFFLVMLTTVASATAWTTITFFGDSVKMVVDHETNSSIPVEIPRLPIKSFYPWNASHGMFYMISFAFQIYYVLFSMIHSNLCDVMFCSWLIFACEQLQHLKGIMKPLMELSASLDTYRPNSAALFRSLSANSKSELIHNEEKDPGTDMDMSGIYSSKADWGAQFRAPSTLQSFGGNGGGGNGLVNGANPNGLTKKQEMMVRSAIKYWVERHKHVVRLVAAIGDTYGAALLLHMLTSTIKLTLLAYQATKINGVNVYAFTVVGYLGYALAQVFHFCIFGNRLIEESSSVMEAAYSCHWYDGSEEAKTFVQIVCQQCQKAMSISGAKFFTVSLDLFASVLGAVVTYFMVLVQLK
Method: (§1) These VUAA1 normalized ∆F values were used to compare the different receptors and ligands.
(§2) The concentration-dependent effect of the reference ligands on their cognate cell lines was examined in more detail. Twelve different ligand concentrations were measured on each cell line in an overall 0.01 μM to 100 μM concentration range with 5 repetitions with three technical replicates each time.
(§3) Twelve thousand to 18,000 cells were plated into each well of a black wall, transparent bottom 384-well microplate (Greiner) 48 h or 72 h before the measurements and were simultaneously treated with 1 μg/mL doxycycline. […] The plate has 24 columns, thus we could record responses in up to eight different cell lines in each plate. On the day of the experiment, the growth medium was replaced with 20 µL assay buffer/well (140 mM NaCl, 5 mM KCl, 2 mM CaCl2, 1 mM MgCl2, 5 mM HEPES-Na, 20 mM glucose, pH 7.3, 340 mOsm). […] Baseline fluorescence (F0) was recorded for 5 s, after which 7 µL VOC buffer (140 mM NaCl, 5 mM KCl, 2 mM CaCl2, 1 mM MgCl2, 5 mM HEPES-Na, 31 mM glucose, 0.1% DMSO, pH 7.3, 340 mOsm) was injected into each well in one row and the fluorescence response was recorded for an additional 30 s, at a rate of one read/sec. VOC solutions (VOC buffer with 4× concentration of the final measured VOC concentration, 9 µL/well was injected) were measured on the same wells in a second round with the same protocol. Each individual concentration of a specific VOC sample was recorded in three wells for the same cell line on the same microplate. The raw data were exported in xls file format, F0 and FMAX values, and the fluorescence intensity changes (∆F) were calculated in Excel (Microsoft) (Supplementary file Data summary.xlsx) using the following equation: ΔF=FMAX-F0/F0 (see also Fig. 1C). On each plate, we recorded the response of each cell line to 50 µM VUAA1. The average of these ∆F values of each cell line were used to calculate the VUAA1-normalized values for the rest of the plate, by dividing VOC response ∆F values by the average VUAA1 response ∆F value of the corresponding OR cell line. Each VOC-OR combination was measured three times as technical replicates. […] The average of these replicates were used as one ∆F and VUAA1-normalized ∆F in the following analysis.
(§4) In the next rows we tested the reference VOCs (or other VOCs known to activate the corresponding cell lines), in order to test if all cell lines are responsive. The remaining rows were used to test VOCs with unknown effect.
(§5) The recorded FMAX, F0, ∆F, VUAA1-normalized ∆F values, as well as the OR name, the name of the tested sample, and the final concentration for each well were copied into supplementary file Data summary.xlsx, that was used to summarize all the plates recorded. Here, the averages of the measurements were calculated for each receptor-VOC-concentration combination.

Drosophila OR85b = target: T2, Drosophila OR85b (Drosophila melanogaster, UniProt Q9VHQ7); experiment: Calcium ion fluorescence (GCaMP6) assay, OR85b stable HEK293 cell line; assay type: cell-based; settings: for activation at 1 µM / activation at 10 µM / activation at 100 µM: HEK293, read-out: OR85b response (VUAA1-normalized response); for Average response: VUAA1-normalized response, mean of biological replicates
T2 construct: expressed in transfected cells
T2 sequence (Q9VHQ7 1-390): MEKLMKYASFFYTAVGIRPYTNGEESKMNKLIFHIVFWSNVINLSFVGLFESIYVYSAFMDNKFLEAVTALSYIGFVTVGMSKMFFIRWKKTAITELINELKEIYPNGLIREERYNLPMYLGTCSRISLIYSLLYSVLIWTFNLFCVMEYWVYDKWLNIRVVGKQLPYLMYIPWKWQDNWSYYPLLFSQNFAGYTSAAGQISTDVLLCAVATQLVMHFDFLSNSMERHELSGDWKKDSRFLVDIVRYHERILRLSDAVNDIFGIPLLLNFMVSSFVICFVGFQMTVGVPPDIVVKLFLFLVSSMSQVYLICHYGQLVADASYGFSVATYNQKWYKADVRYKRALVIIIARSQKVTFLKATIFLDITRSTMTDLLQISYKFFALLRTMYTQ
T2 sequence (Q9VNB5 1-486 partner): T1 sequence (Q9VNB5 1-486 partner)
Method: as §1, §2, §3, §4, §5

[1] = HEK293, 1 μM VOC, 50 μM VUAA1 = 1, responses not exceeding 0.05 considered 0, read-out: OR10a Average response (VUAA1-normalized)
[2] = HEK293, 10 μM VOC, 50 μM VUAA1 = 1, responses not exceeding 0.05 considered 0, read-out: OR10a Average response (VUAA1-normalized)
[3] = HEK293, 100 μM VOC, 50 μM VUAA1 = 1, responses not exceeding 0.05 considered 0, read-out: OR10a Average response (VUAA1-normalized)
[4] = HEK293, read-out: OR10a response (VUAA1-normalized response), VOC concentration 1 μM
[5] = HEK293, read-out: OR10a response (VUAA1-normalized response), VOC concentration 10 μM
[6] = HEK293, read-out: OR10a response (VUAA1-normalized response), VOC concentration 100 μM
[7] = ligand concentration 1 (unit not given), threshold 0.05, below shown as 0
[8] = ligand concentration 10 (unit not given), threshold 0.05, below shown as 0
[9] = ligand concentration 100 (unit not given), threshold 0.05, below shown as 0
[10] = concentration 1, normalized fluorescence change, values below 0.05 threshold given as 0
[11] = concentration 10, normalized fluorescence change, values below 0.05 threshold given as 0
[12] = concentration 100, normalized fluorescence change, values below 0.05 threshold given as 0
[13] = HEK293, read-out: OR10a Average response (VUAA1-normalized), 1 μM VOC, 50 μM VUAA1 = 1, responses not exceeding 0.05 considered 0
[14] = HEK293, read-out: OR10a Average response (VUAA1-normalized), 10 μM VOC, 50 μM VUAA1 = 1, responses not exceeding 0.05 considered 0
[15] = HEK293, read-out: OR10a Average response (VUAA1-normalized), 100 μM VOC, 50 μM VUAA1 = 1, responses not exceeding 0.05 considered 0
[16] = ligand concentration 1 (unit not given), 0.05 threshold, values below shown as 0
[17] = ligand concentration 10 (unit not given), 0.05 threshold, values below shown as 0
[18] = ligand concentration 100 (unit not given), 0.05 threshold, values below shown as 0
[19] = 100 µM, OR10a clone G5, single plate 2019.12.05

| Molecule | activation at 1 µM (Drosophila OR10a; [1]) [%] | activation at 10 µM (Drosophila OR10a; [2]) [%] | activation at 100 µM (Drosophila OR10a; [3]) [%] | activation at 1 µM (Drosophila OR10a; [4]) [%] | activation at 10 µM (Drosophila OR10a; [5]) [%] | activation at 100 µM (Drosophila OR10a; [6]) [%] | DF norm AVERAGE OR10a (Drosophila OR10a; [7]) | DF norm AVERAGE OR10a (Drosophila OR10a; [8]) | DF norm AVERAGE OR10a (Drosophila OR10a; [9]) | activation at 1 µM (Drosophila OR85b) [%] | activation at 10 µM (Drosophila OR85b) [%] | activation at 100 µM (Drosophila OR85b) [%] | Average response (Drosophila OR85b; OR85b cell line, cc. 1 µM) | Average response (Drosophila OR85b; OR85b cell line, cc. 10 µM) | Average response (Drosophila OR85b; OR85b cell line, cc. 100 µM) | DF norm AVERAGE OR85b (Drosophila OR85b; [7]) | DF norm AVERAGE OR85b (Drosophila OR85b; [8]) | DF norm AVERAGE OR85b (Drosophila OR85b; [9]) | DF norm AVERAGE OR10a (Drosophila OR10a) | DF norm AVERAGE OR85b (Drosophila OR85b; [10]) | further results |
| --- | --- | --- | --- | --- | --- | --- | --- | --- | --- | --- | --- | --- | --- | --- | --- | --- | --- | --- | --- | --- | --- |
| CCCCCCCCCC=O [decanal] | 0 | 0 | 0 | 0 | 0 | 0 | 0 | 0 | 0 | 0 | 0 | 0 | 0.00 | 0.0324 | 0.00 | 0 | 0 | 0 |  |  |  |
| C=CC(O)CCCCC (stereo not drawn) [1-octen-3-ol] | 0 | 2.34 | 4.52 | 0 | 0 | 0 |  |  |  | 0 | 0 | 8 | 0.00 | 0.0043 | 0.08 |  |  |  | 0 | 0 | DF norm AVERAGE OR85b (Drosophila OR85b; [11]): 0; DF norm AVERAGE OR85b (Drosophila OR85b; [12]): 0.08325 |
| CCCCOC(C)=O [butyl acetate] |  |  |  | 0 | 0 | 0 | 0 | 0 | 0 | 0 | 0 | 0 | 0.00 | 0.00 | 0.00 | 0 | 0 | 0 |  |  | activation at 1 µM (Drosophila OR10a; [13]): 3%; activation at 10 µM (Drosophila OR10a; [14]): 0%; activation at 100 µM (Drosophila OR10a; [15]): 5% |
| C=Cc1ccccc1 [styrene] |  |  |  |  |  |  |  |  |  |  |  |  | 0.00 | 0.00 | 0.0181 |  |  |  |  |  | activation at 1 µM (Drosophila OR10a; [13]): 3%; activation at 10 µM (Drosophila OR10a; [14]): 0%; activation at 100 µM (Drosophila OR10a; [15]): 14%; OR10a response (VUAA1-normalized) at 1 μM (Drosophila OR10a; OR10a cell line, VOC concentration 1 μM): 0.00; OR10a response (VUAA1-normalized) at 10 μM (Drosophila OR10a; OR10a cell line, VOC concentration 10 μM): 0.00; OR10a response (VUAA1-normalized) at 100 μM (Drosophila OR10a; OR10a cell line, VOC concentration 100 μM): 0.14; DF norm AVERAGE OR10a (Drosophila OR10a; [16]): 0; DF norm AVERAGE OR10a (Drosophila OR10a; [17]): 0; DF norm AVERAGE OR10a (Drosophila OR10a; [18]): 0.144; OR85b response (VUAA1-normalized) at 1 μM (Drosophila OR85b; OR85b cell line, VOC concentration 1 μM): 0.00; OR85b response (VUAA1-normalized) at 10 μM (Drosophila OR85b; OR85b cell line, VOC concentration 10 μM): 0.00; OR85b response (VUAA1-normalized) at 100 μM (Drosophila OR85b; OR85b cell line, VOC concentration 100 μM): 0.00; DF norm AVERAGE OR85b (Drosophila OR85b; [16]): 0; DF norm AVERAGE OR85b (Drosophila OR85b; [17]): 0; DF norm AVERAGE OR85b (Drosophila OR85b; [18]): 0 |
| (+)-beta-cedrene |  |  |  |  |  |  |  |  |  |  |  |  | 0.00 | 0.0468 | 0.0135 |  |  |  | 0 | 0 | OR10a Average response (VUAA1-normalized) (Drosophila OR10a; 1 μM VOC, 50 μM VUAA1 = 1, responses not exceeding 0.05 considered 0): 0.0218; OR10a Average response (VUAA1-normalized) (Drosophila OR10a; 10 μM VOC, 50 μM VUAA1 = 1, responses not exceeding 0.05 considered 0): 0.0187; OR10a Average response (VUAA1-normalized) (Drosophila OR10a; 100 μM VOC, 50 μM VUAA1 = 1, responses not exceeding 0.05 considered 0): 0.00; OR10a response (VUAA1-normalized response) (Drosophila OR10a; VOC concentration 1 μM): 0.00; OR10a response (VUAA1-normalized response) (Drosophila OR10a; VOC concentration 10 μM): 0.00; OR10a response (VUAA1-normalized response) (Drosophila OR10a; VOC concentration 100 μM): 0.00; OR85b response (VUAA1-normalized response) (Drosophila OR85b; VOC concentration 1 μM): 0.00; OR85b response (VUAA1-normalized response) (Drosophila OR85b; VOC concentration 10 μM): 0.00; OR85b response (VUAA1-normalized response) (Drosophila OR85b; VOC concentration 100 μM): 0.00; DF norm AVERAGE OR85b (Drosophila OR85b; [11]): 0; DF norm AVERAGE OR85b (Drosophila OR85b; [12]): 0 |
| CCCCOC(=O)CC [butyl propanoate] | 0 | 0 | 3.44 | 0 | 0 | 0 | 0 | 0 | 0 |  |  |  |  |  |  |  |  |  |  |  | DF norm, all technical replicates (Drosophila OR10a; [19]): 0; DF norm, outlier technical replicates removed (Drosophila OR10a; [19]): 0; DF, outlier technical replicates removed (Drosophila OR10a; [19]): 0; DF, all technical replicates (Drosophila OR10a; 100 µM, OR10a clone G5, single plate 2019.12.05, xc+0.1%DMSO): 0 |
